row,Compound,melting point [°C]
1,Cl.Cn1c(=O)c(-c2ccccc2Cl)cc2cnc(NC3CC(C)(C)NC(C)(C)C3)nc21,> 300
2,Cl.Cn1c(=O)c(-c2ccccc2Cl)cc2cnc(NC3CCN(S(=O)(=O)CC(F)(F)F)CC3)nc21,215 to 219
3,CC(C)S(=O)(=O)N1CCC(Nc2ncc3cc(-c4ccccc4Cl)c(=O)n(C)c3n2)CC1.Cl,132 to 136
4,CCS(=O)(=O)N1CCC(Nc2ncc3cc(-c4ccccc4Cl)c(=O)n(C)c3n2)CC1.Cl,144 to 150
5,Cl.Cn1cc(/C=N\C(=N)NC2CCOCC2)cc(-c2ccccc2N)c1=O,210.7 to 211.9
6,Cc1ccccc1-c1cc2cnc(NC3CCN(S(C)(=O)=O)CC3)nc2n(C)c1=O.Cl,221.4 to 221.8
7,Cl.Cn1c(=O)c(-c2ccccc2Cl)cc2cnc(NC3CCOC3)nc21 (stereo not shown),193.9 to 194.5
8,CCS(=O)(=O)N1CCC(Nc2ncc3cc(-c4ccccc4F)c(=O)n(C)c3n2)CC1.Cl,192.5 to 195
9,Cl.Cn1c(=O)c(-c2ccccc2Cl)cc2cnc(NC3CCN(C(N)=O)CC3)nc21,192 to 202
10,CC(C)S(=O)(=O)N1CCC(Nc2ncc3cc(-c4ccccc4F)c(=O)n(C)c3n2)CC1.Cl,204 to 209
11,Cl.Cn1c(=O)c(-c2ccccc2F)cc2cnc(NC3CCN(S(=O)(=O)C(F)(F)F)CC3)nc21,213.5 to 221
12,CC1C(=O)C(c2ccccc2Cl)=Cc2cnc(NOCc3ccccc3)nc21.Cl (stereo not shown),199.2 to 199.5
13,Cc1ccccc1-c1cc2cnc(NC3CCN(S(=O)(=O)C(F)(F)F)CC3)nc2n(C)c1=O.Cl,153 to 162
14,CCS(=O)(=O)N1CCC(Nc2ncc3cc(-c4ccccc4OC)c(=O)n(C)c3n2)CC1.Cl,120.3 to 139.7
15,CCCS(=O)(=O)N1CCC(Nc2ncc3cc(-c4ccccc4OC)c(=O)n(C)c3n2)CC1.Cl,59.7 to 63.8
16,CCn1c(=O)c(-c2ccccc2Cl)cc2cnc(NC3CCS(=O)(=O)CC3)nc21.Cl,285.2 to 286.7
17,CC(C)(CO)Nc1ncc2cc(-c3ccccc3Cl)c(=O)n(N)c2n1.Cl,145 to 163
18,CC(CCO)Nc1ncc2cc(-c3ccccc3Cl)c(=O)n(C)c2n1.Cl (stereo not shown),180.7 to 189.2
19,Cl.Cn1c(=O)c(-c2ccccc2Cl)cc2cnc(NC3CCC(C(=O)O)CC3)nc21 (stereo not shown),263.6 to 264.2
20,Cl.O=c1[nH]c2nc(N[C@H]3CC[C@H](O)CC3)ncc2cc1-c1ccccc1Cl,191.1 to 194.3

row,Compound,melting point [°C]
1,Cl.Cn1c(=O)c(-c2ccccc2Cl)cc2cnc(NC3CCN(C=O)CC3)nc21,143 to 148
2,Cl.Cn1c(=O)c(-c2ccccc2Cl)cc2cnc(NC3CCC(CO)CC3)nc21 (stereo not shown),153.6 to 157
3,Cl.Cn1c(=O)c(-c2ccccc2Cl)cc2cnc(NCC3CCC(O)CC3)nc21 (stereo not shown),148 to 151.5
4,Cl.O=c1[nH]c2nc(NCC3CCC(O)CC3)ncc2cc1-c1ccccc1Cl (stereo not shown),205 to 213
5,Cl.Cn1c(=O)c(-c2ccccc2Cl)cc2cnc(NC3CCN(CC#N)CC3)nc21,228.3 to 228.9
6,CS(=O)(=O)N[C@H]1CC[C@H](Nc2ncc3cc(-c4ccccc4Cl)c(=O)[nH]c3n2)CC1.Cl,> 300
7,CC(=O)O[C@H]1CC[C@H](Nc2ncc3cc(-c4ccccc4Cl)c(=O)[nH]c3n2)CC1.Cl,> 300
8,Cl.Cn1c(=O)c(-c2ccccc2Cl)cc2cnc(NC3CCC4(CC3)NC(=O)NC4=O)nc21 (stereo not shown),> 300
9,COC(=O)CN1CCC(Nc2ncc3cc(-c4ccccc4Cl)c(=O)n(C)c3n2)CC1.Cl,150 to 168
10,Cl.O=c1[nH]c2nc(NC3CCNCC3)ncc2cc1-c1ccccc1Cl,> 300
11,Cl.NC(=O)O[C@H]1CC[C@H](Nc2ncc3cc(-c4ccccc4Cl)c(=O)[nH]c3n2)CC1,291 to 293.5
12,CN(C)S(=O)(=O)N[C@H]1CC[C@H](Nc2ncc3cc(-c4ccccc4Cl)c(=O)n(C)c3n2)CC1.Cl,226.5 to 229
13,CO[C@H]1CC[C@H](N(C)c2ncc3cc(-c4ccccc4Cl)c(=O)n(C)c3n2)CC1.Cl,182.3 to 183.1
14,CO[C@H]1CC[C@H](Nc2ncc3cc(-c4ccccc4Cl)c(=O)n(C)c3n2)CC1.Cl,218.2 to 218.5
15,Cl.Cn1c(=O)c(-c2ccccc2Cl)cc2cnc(NC3CCN(CCO)CC3)nc21,265.9 to 266.6
16,Cl.O=C1CCC(Nc2ncc3cc(-c4ccccc4Cl)c(=O)n(-c4ccc(F)cc4)c3n2)CC1,242.7 to 243.6
17,Cl.O=c1c(-c2ccccc2Cl)cc2cnc(NC3CCOCC3)nc2n1-c1ccc(F)cc1,150 to 154
18,Cl.Cn1c(=O)c(-c2ccccc2Cl)cc2cnc(NC3CCN(CC(F)(F)F)CC3)nc21,180 to 183
19,CS(=O)(=O)N1CCC(Nc2ncc3cc(-c4ccccc4Cl)c(=O)n(CC(F)(F)F)c3n2)CC1.Cl,148.6 to 151.6
20,CCOC(=O)C1CCC(Nc2ncc3cc(-c4ccccc4Cl)c(=O)n(C)c3n2)CC1.Cl (stereo not shown),192.1 to 198.3

# More lines, now with the values ahead:
row,melting point [°C],Compound
1,140 to 144,Cl.Cn1c(=O)c(-c2ccccc2Cl)cc2cnc(N[C@H]3CCCCNC3=O)nc21
2,189 to 192,COC1CCC(Nc2ncc3cc(-c4ccccc4Cl)c(=O)n(C)c3n2)CC1.Cl (stereo not shown)
3,193.3 to 194.1,CCCS(=O)(=O)N1CCC(Nc2ncc3cc(-c4ccccc4Cl)c(=O)n(C)c3n2)CC1.Cl
4,134 to 140,Cl.Cn1c(=O)c(-c2ccccc2Cl)cc2cnc(NC3CCN(S(=O)(=O)C(F)(F)F)CC3)nc21
5,256 to 260,Cl.Cn1c(=O)c(-c2ccccc2Cl)cc2cnc(NC3CCS(=O)(=O)C3)nc21 (stereo not shown)
6,222.9 to 225.9,Cc1ccccc1-c1cc2cnc(NC3CCOCC3)nc2n(C)c1=O.Cl
7,212 to 213.7,COc1ccccc1-c1cc(/C=N\C(=N)NC2CCOCC2)cn(C)c1=O.Cl
8,274.4 to 274.8,Cl.Cn1c(=O)c(-c2ccccc2Cl)cc2cnc(NN3CCN(CCO)CC3)nc21
9,218.5 to 219.3,CCS(=O)(=O)N1CCC(Nc2ncc3cc(-c4ccccc4C)c(=O)n(C)c3n2)CC1.Cl
10,171.9 to 173,Cl.Cn1c(=O)c(-c2ccccc2Cl)cc2cnc(N[C@@H]3CCOC3)nc21
11,205 to 207.5,Cl.Cn1c(=O)c(-c2ccccc2F)cc2cnc(NC3CCN(S(C)(=O)=O)CC3)nc21
12,206 to 209,CCCS(=O)(=O)N1CCC(Nc2ncc3cc(-c4ccccc4F)c(=O)n(C)c3n2)CC1.Cl
13,225.9 to 226.4,Cl.Cn1c(=O)c(-c2ccccc2F)cc2cnc(NC3CCN(S(=O)(=O)CC(F)(F)F)CC3)nc21
14,142 to 149,Cc1ccccc1-c1cc2cnc(NC3CCN(S(=O)(=O)C(C)C)CC3)nc2n(C)c1=O.Cl
15,202.7 to 204.3,COc1ccccc1-c1cc2cnc(NC3CCN(S(C)(=O)=O)CC3)nc2n(C)c1=O.Cl
16,157 to 163.1,COc1ccccc1-c1cc2cnc(NC3CCN(S(=O)(=O)C(C)C)CC3)nc2n(C)c1=O.Cl
17,140.8 to 147.3,COc1ccccc1-c1cc2cnc(NC3CCN(S(=O)(=O)C(F)(F)F)CC3)nc2n(C)c1=O.Cl
18,194.7 to 196,COc1ccccc1-c1cc2cnc(NC3CCN(S(=O)(=O)CC(F)(F)F)CC3)nc2n(C)c1=O.Cl
19,207.1 to 215.9,Cl.Nn1c(=O)c(-c2ccccc2Cl)cc2cnc(NC3CCOCC3)nc21
20,182 to 186,Cl.O=c1c(-c2ccccc2Cl)cc2cnc(NC3CCS(=O)(=O)CC3)nc2n1CCO
21,223.7 to 230.2,CC(C)(C)Cn1c(=O)c(-c2ccccc2Cl)cc2cnc(NC3CCS(=O)(=O)CC3)nc21.Cl

row,melting point [°C],Compound
1,180.7 to 213.2,CS(=O)(=O)N1CCC(Nc2ncc3cc(-c4ccccc4Cl)c(=O)n(N)c3n2)CC1.Cl
2,180.3 to 181.2,Cl.Cn1c(=O)c(-c2ccccc2Cl)cc2cnc(NC3CCC4(CC3)OCC(C)(CO)CO4)nc21 (stereo not shown)
3,240 to 258,Cc1ccccc1-c1cc2cnc(NC3CCS(=O)(=O)CC3)nc2n(C)c1=O.Cl
4,240 to 243,Cl.Nn1c(=O)c(-c2ccccc2Cl)cc2cnc(NC3CCS(=O)(=O)CC3)nc21
5,> 300,C[C@H](Nc1ncc2cc(-c3ccccc3Cl)c(=O)n(N)c2n1)C(C)(C)O.Cl
6,111.3 to 117.5,CC(C)CNn1c(=O)c(-c2ccccc2Cl)cc2cnc(NC3CCOCC3)nc21.Cl
7,290 to 293,Cl.O=c1[nH]c2nc(NC3(CO)CCCC3)ncc2cc1-c1ccccc1Cl
8,146 to 150,Cl.Cn1c(=O)c(-c2ccccc2Cl)cc2cnc(NC3CCC4(CC3)OCC(CO)CO4)nc21 (stereo not shown)
9,265.5 to 269.9,Cl.O=C1CCC(Nc2ncc3cc(-c4ccccc4Cl)c(=O)[nH]c3n2)CC1
10,234.7 to 235.4,Cl.Cn1c(=O)c(-c2ccccc2Cl)cc2cnc(N[C@H]3CC[C@H](OC(N)=O)CC3)nc21
11,260.9 to 261.1,Cl.Cn1c(=O)c(-c2ccccc2Cl)cc2cnc(N[C@H]3CC[C@H](NS(C)(=O)=O)CC3)nc21
12,210.5 to 212,Cl.O=c1c(-c2ccccc2Cl)cc2cnc(N[C@H]3CC[C@H](O)CC3)nc2n1CCO
13,262.2 to 262.5,CN(C)S(=O)(=O)N[C@H]1CC[C@H](Nc2ncc3cc(-c4ccccc4Cl)c(=O)[nH]c3n2)CC1.Cl
14,204.6 to 205.6,Cl.Cn1c(=O)c(-c2ccccc2Cl)cc2cnc(NC3CCN(CCS(C)(=O)=O)CC3)nc21
15,185 to 194,Cl.Cn1c(=O)c(-c2ccccc2Cl)cc2cnc(NC3CCN(S(C)(=O)=O)CC3)nc21
16,64 to 102.6,CNC(=O)CN1CCC(Nc2ncc3cc(-c4ccccc4Cl)c(=O)n(C)c3n2)CC1.Cl
17,156 to 169,Cl.Cn1c(=O)c(-c2ccccc2Cl)cc2cnc(N[C@H]3CC[C@@](C)(O)CC3)nc21
18,213.9 to 214.4,COC(=O)O[C@H]1CC[C@H](Nc2ncc3cc(-c4ccccc4Cl)c(=O)n(C)c3n2)CC1.Cl
19,> 300,Cl.O=c1[nH]c2nc(NC3CCOCC3)ncc2cc1-c1ccccc1Cl
20,230.2 to 230.4,Cl.N#CCn1c(=O)c(-c2ccccc2Cl)cc2cnc(NC3CCOCC3)nc21
21,217 to 220,Cl.O=c1c(-c2ccccc2Cl)cc2cnc(NC3CCOCC3)nc2n1CCO
